Source: the supplement of paper PMC11368000

Tests used:
Conditions in all cases: exposure time: 90 min
[1] = test system: 30145 (donor line of iPSC-derived cardiomyocytes); assay: POD (EC05) for increase in beat frequency (positive chronotrope) vs vehicle; higher = less potent (higher point of departure)
Procedure, shortened: (§1)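 Cardiomyocytes derived from human iPSCs of 16 donors were grown 14 days in gelatin-coated 384-well plates, loaded 2 h with a fluorescent Ca2+ dye, then exposed for 90 min at 37 °C to final concentrations of 0.1, 1, 10 and 100 µM in 0.5% DMSO. A FLIPR Tetra recorded Ca2+ flux at 8 frames/s for 100 s before and after exposure. Points of departure for each donor were derived by hierarchical Bayesian Hill fitting of vehicle-normalised beat frequency, decay-to-rise ratio or peak frequency. The thresholds applied were a 5% change, or a 95% loss for peak frequency.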

[2] = test system: 1434 (donor line of iPSC-derived cardiomyocytes); assay: POD (EC05) for decrease in beat frequency (negative chronotrope) vs vehicle; higher = less potent (higher point of departure)
Procedure, shortened: as §1

[3] = test system: 1083 (donor line of iPSC-derived cardiomyocytes); assay: as above
Procedure, shortened: as §1

[4] = test system: 1392 (donor line of iPSC-derived cardiomyocytes); assay: as above
Procedure, shortened: as §1

[5] = test system: 1531 (donor line of iPSC-derived cardiomyocytes); assay: POD (EC05) for increase in Ca2+ transient decay-to-rise ratio (QT prolongation) vs vehicle; higher = less potent (higher point of departure)
Method: (§2)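 Human iPSC-derived cardiomyocytes from 16 donors were exposed for 90 min at 37 °C to each PFAS at 0.1, 1, 10 and 100 µM in 0.5% DMSO, 384-well plates. Kinetic Ca2+ flux (FLIPR) and Hoechst nuclei counts were normalised to vehicle wells and fitted with a hierarchical Bayesian Hill model to give donor-specific PODs: EC05 for beat-rate increase or decrease and for decay-to-rise ratio increase (QT proxy), EC95 for peak-frequency loss (asystole), EC10 for total cell number loss. 0.03 µM is the lower bound.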

[6] = test system: 11235 (donor line of iPSC-derived cardiomyocytes); assay: as above
Method: as §2

[7] = test system: 1535 (donor line of iPSC-derived cardiomyocytes); assay: as above
Method: as §2

[8] = test system: 30145; assay: as above
Method: as §2

[9] = test system: 30171 (donor line of iPSC-derived cardiomyocytes); assay: as above
Method: as §2

[10] = test system: 1434; assay: as above
Method: as §2

[11] = test system: 20032 (donor line of iPSC-derived cardiomyocytes); assay: as above
Method: as §2

[12] = test system: 1118 (donor line of iPSC-derived cardiomyocytes); assay: as above
Method: as §2

[13] = test system: 1309 (donor line of iPSC-derived cardiomyocytes); assay: as above
Method: as §2

[14] = test system: 1083; assay: as above
Method: as §2

[15] = test system: 1368 (donor line of iPSC-derived cardiomyocytes); assay: as above
Method: as §2

[16] = test system: 1392; assay: as above
Method: as §2

[17] = test system: 1565 (donor line of iPSC-derived cardiomyocytes); assay: as above
Method: as §2

[18] = test system: 1518 (donor line of iPSC-derived cardiomyocytes); assay: as above
Method: as §2

[19] = test system: 1516 (donor line of iPSC-derived cardiomyocytes); assay: as above
Method: as §2

[20] = test system: 20084 (donor line of iPSC-derived cardiomyocytes); assay: as above
Method: as §2

`O=S(=O)(O)C(F)(F)C(F)(F)C(F)(F)C(F)(F)C(F)(F)C(F)(F)C(F)(F)C(F)(F)F` [Perfluorooctanesulfonic_acid] showed a POD vs vehicle [1] of over 100 µM, a POD vs vehicle [2] of 13.3 µM and a POD vs vehicle [3] of over 100 µM. For the same compound, the POD vs vehicle [4] was over 100 µM, the POD vs vehicle [5] was over 100 µM and the POD vs vehicle [6] was over 100 µM. The POD vs vehicle [7] was over 100 µM, the POD vs vehicle [8] was over 100 µM and the POD vs vehicle [9] was over 100 µM. It also gave a POD vs vehicle [10] of over 100 µM, a POD vs vehicle [11] of over 100 µM and a POD vs vehicle [12] of over 100 µM. It also gave a POD vs vehicle [13] of over 100 µM, a POD vs vehicle [14] of over 100 µM and a POD vs vehicle [15] of over 100 µM. It also gave a POD vs vehicle [16] of over 100 µM, a POD vs vehicle [17] of over 100 µM and a POD vs vehicle [18] of over 100 µM. The POD vs vehicle [19] was over 100 µM and the POD vs vehicle [20] was over 100 µM.
With `O=C(O)C(F)(F)C(F)(F)C(F)(F)C(F)(F)C(F)(F)C(F)(F)C(F)(F)C(F)(F)C(F)(F)C(F)(F)F` [Perfluoroundecanoic_acid] the POD vs vehicle [1] was over 100 µM, the POD vs vehicle [2] was over 100 µM and the POD vs vehicle [3] was over 100 µM. It also gave a POD vs vehicle [4] of over 100 µM, a POD vs vehicle [5] of over 100 µM and a POD vs vehicle [6] of over 100 µM. It also gave a POD vs vehicle [7] of over 100 µM, a POD vs vehicle [8] of over 100 µM and a POD vs vehicle [9] of 4.57 µM. The POD vs vehicle [10] was over 100 µM, the POD vs vehicle [11] was over 100 µM and the POD vs vehicle [12] was over 100 µM. The POD vs vehicle [13] was over 100 µM, the POD vs vehicle [14] was over 100 µM and the POD vs vehicle [15] was over 100 µM. For the same compound, the POD vs vehicle [16] was over 100 µM, the POD vs vehicle [17] was over 100 µM and the POD vs vehicle [18] was 17.4 µM. For the same compound, the POD vs vehicle [19] was over 100 µM and the POD vs vehicle [20] was over 100 µM.
With `CN(CCO)S(=O)(=O)C(F)(F)C(F)(F)C(F)(F)C(F)(F)C(F)(F)C(F)(F)C(F)(F)C(F)(F)F` [N-Methyl-N-(2-hydroxyethyl)perfluorooctanesulfonamide] the POD vs vehicle [1] was over 100 µM, the POD vs vehicle [2] was 42.2 µM and the POD vs vehicle [3] was 16.9 µM. For the same compound, the POD vs vehicle [4] was over 100 µM, the POD vs vehicle [5] was over 100 µM and the POD vs vehicle [6] was over 100 µM. For the same compound, the POD vs vehicle [7] was over 100 µM, the POD vs vehicle [8] was over 100 µM and the POD vs vehicle [9] was over 100 µM. For the same compound, the POD vs vehicle [10] was over 100 µM, the POD vs vehicle [11] was over 100 µM and the POD vs vehicle [12] was over 100 µM. For the same compound, the POD vs vehicle [13] was over 100 µM, the POD vs vehicle [14] was over 100 µM and the POD vs vehicle [15] was over 100 µM. The POD vs vehicle [16] was over 100 µM, the POD vs vehicle [17] was over 100 µM and the POD vs vehicle [18] was over 100 µM. It also gave a POD vs vehicle [19] of over 100 µM and a POD vs vehicle [20] of over 100 µM.
In the case of `COC(=O)C(F)(F)C(F)(F)OC(F)(C(F)(F)F)C(F)(F)OC(F)=C(F)F` (stereo not drawn) [Methyl_perfluoro(3-(1-ethenyloxypropan-2-yloxy)propanoate)], the POD vs vehicle [1] is reported as over 100 µM, the POD vs vehicle [2] is reported as over 100 µM and the POD vs vehicle [3] is reported as over 100 µM. For the same compound, the POD vs vehicle [4] was over 100 µM, the POD vs vehicle [5] was 24.9 µM and the POD vs vehicle [6] was over 100 µM. The POD vs vehicle [7] was over 100 µM, the POD vs vehicle [8] was over 100 µM and the POD vs vehicle [9] was over 100 µM. The POD vs vehicle [10] was over 100 µM, the POD vs vehicle [11] was over 100 µM and the POD vs vehicle [12] was over 100 µM. For the same compound, the POD vs vehicle [13] was over 100 µM, the POD vs vehicle [14] was over 100 µM and the POD vs vehicle [15] was over 100 µM. For the same compound, the POD vs vehicle [16] was over 100 µM, the POD vs vehicle [17] was over 100 µM and the POD vs vehicle [18] was over 100 µM. The POD vs vehicle [19] was over 100 µM and the POD vs vehicle [20] was 37.5 µM.
In the case of `NC(=O)C(F)(F)C(F)(F)C(F)(F)C(F)F`, the POD vs vehicle [2] is reported as over 100 µM, the POD vs vehicle [3] is reported as over 100 µM and the POD vs vehicle [4] is reported as over 100 µM. For the same compound, the POD vs vehicle [5] was 2.04 µM, the POD vs vehicle [6] was over 100 µM and the POD vs vehicle [7] was over 100 µM. It also gave a POD vs vehicle [8] of over 100 µM, a POD vs vehicle [9] of 17 µM and a POD vs vehicle [10] of 0.543 µM. The POD vs vehicle [11] was 0.131 µM, the POD vs vehicle [12] was 7.19 µM and the POD vs vehicle [13] was over 100 µM. It also gave a POD vs vehicle [14] of over 100 µM, a POD vs vehicle [15] of over 100 µM and a POD vs vehicle [16] of over 100 µM. For the same compound, the POD vs vehicle [17] was 1.78 µM, the POD vs vehicle [18] was 0.19 µM and the POD vs vehicle [20] was over 100 µM.
